Results from US20250194601A1, “PYRIDAZINONE COMPOUND OR SALT THEREOF AND PEST CONTROL AGENT CONTAINING IT” (ISHIHARA SANGYO KAISHA, LTD., priority 2022, published 2025).

What was measured:
Format in all cases: in vivo
[1] = test system: green peach aphid (Myzus persicae); experiment: whole plant or invertebrate; conditions: in Raphanus sativus, foliar, nymphs, 5th day after the application
Description: Test on effect against green peach aphid (Myzus persicae)
(§1) A Japanese radish leaf was inserted in a test tube in which water was put, and 5 adults of green peach aphid were released on the leaf. On the next day, the adults were removed, and the number of nymphs parasitic on the leaf was counted as the number of tested nymphs, and then the leaf was dipped in a chemical solution of a test compound at a concentration of 200 ppm or 50 ppm. After the chemical solution dried in air, the leaf was left in a constant temperature chamber with lighting at 25° C. On the 5th day after the application, the number of dead nymphs was counted, and the mortality (%) was calculated by the following formula. Nymphs that dropped from the leaf or nymphs that were moribund were counted as dead nymphs.
Mortality (%)=[(Number of dead nymphs)/(number of tested nymphs)]x100

[2] = test system: brown planthopper (Nilaparvata luqens); experiment: whole plant or invertebrate; conditions: in Oryza sativa, second to third instar nymphs, 5th day after release
Description: (§2) Test on effect against brown planthopper (Nilaparvata luqens) Rice seedlings were dipped in a chemical solution of a test compound at a concentration of 200 ppm or 50 ppm. After the chemical solution dried in air, the root was wrapped with wet adsorbent cotton, and the seedlings were put into a test tube. About 10 second to third instar nymphs of brown planthopper were released, the test tube was covered with a gauze, and the test tube was left in a constant temperature chamber with lighting at 25° C. On the 5th day after release, the number of dead nymphs was counted, and the mortality (%) was calculated by the following formula.
Mortality (%)=[(number of dead nymphs)/(number of released nymphs)]×100

[3] = test system: two-spotted spider mite (Tetranychus urticae); experiment: Test Example 3: effects against two-spotted spider mite, kidney bean leaf dip; conditions: foliar, adults, 3rd day after the application
Description: Test on effects against two-spotted spider mite (Tetranychus urticae) In a chemical solution of a test compound at a concentration of 800 ppm, 200 ppm or 50 ppm, a leaf of kidney bean on which about 20 adults of two-spotted spider mite had been released, was dipped. After the chemical solution dried in air, the leaf was left in a constant temperature chamber with lighting at 25° C. On the 3rd day after the application, the number of dead adults was counted, and the mortality (%) was calculated by the following formula. Adults that dropped from the leaf or adults that were moribund were counted as dead adults.

[4] = test system: green peach aphid (Myzus persicae); experiment: Comparative Test Example 2: green peach aphid, radish leaf dip; conditions: foliar, 5th day after the application; for mortality at 50 ppm: Active ingredient concentration 50 ppm; for mortality at 200 ppm: Active ingredient concentration 200 ppm
Description: as §1, with “aphid (Myzus persicae)” for “aphid”, “[…].” for “25° C.”
The test compounds were the same as in Comparative Test Example 1.

[5] = test system: brown planthopper (Nilaparvata luqens); experiment: Comparative Test Example 1: brown planthopper, rice seedling dip; conditions: 5th day after release; for mortality at 50 ppm: Active ingredient concentration 50 ppm; for mortality at 200 ppm: Active ingredient concentration 200 ppm
Description: as §2, with “Rice” for “Test on effect against brown planthopper (Nilaparvata luqens) Rice”, “planthopper (Nilaparvata luqens)were” for “planthopper were”
The test compounds are Compound No. 2-12 as the compound of the present invention and the following Comparative Compounds (A) and (B) as the comparative compounds.

Compound | mortality at 200 ppm [1] | mortality at 200 ppm [2] | mortality at 800 ppm [3] | mortality at 50 ppm [4] | mortality at 200 ppm [4] | mortality at 50 ppm [5] | mortality at 200 ppm [5] | mortality at 200 ppm [3]
CCc1nn(-c2ncc(C(F)(F)F)cc2Cl)c(=O)c(-n2ccc(C(F)(F)F)n2)c1O [1-57, 2-[3-chloro-5-(trifluoromethyl)pyridin-2-yl]-6-ethyl-5-hydroxy-4-[3-(trifluoromethyl)-1 H-pyrazol-1-yl]pyridazin-3(2H)-one] | ≥ 90% | ≥ 90% |  |  |  |  |  | 
CCc1nn(-c2ccc(C(F)(F)F)cc2Cl)c(=O)c(-n2ccc(C(F)(F)F)n2)c1O [2-12] | ≥ 90% | ≥ 90% | ≥ 80% | 100% | 100% | 100% | 100% | 
CCc1nn(-c2c(Cl)cc(C(F)(F)F)cc2Cl)c(=O)c(-n2ccc(C(F)(F)F)n2)c1O [2-97, 2-[2,6-dichloro-4-(trifluoromethyl)phenyl]-6-ethyl-5-hydroxy-4-[3-(trifluoromethyl)-1 H-pyrazol-1-yl]pyridazin-3(2H)-one] | ≥ 90% | ≥ 90% | ≥ 80% |  |  |  |  | 
CCc1nn(-c2c(C)cc(S(=O)(=O)C(F)(F)F)cc2C)c(=O)c(-n2ccc(Cl)n2)c1O [2-191, 4-(3-chloro-1 H-pyrazol-1-yl)-2-{2,6-dimethyl-4-[(trifluoromethyl)sulfonyl]phenyl}-6-ethyl-5-hydroxypyridazin-3(2H)-one] | ≥ 90% | ≥ 90% |  |  |  |  |  | 
COCc1nn(-c2c(C)cc(C(F)(F)F)cc2C)c(=O)c(-n2ccc(Cl)n2)c1O [2-444, 4-(3-chloro-1 H-pyrazol-1-yl)-2-[2,6-dimethyl-4-(trifluoromethyl)phenyl]-5-hydroxy-6-(methoxymethyl)pyridazin-3(2H)-one] | ≥ 90% | ≥ 90% |  |  |  |  |  | 
Cc1ccn(-c2c(O)c(C(F)(F)F)nn(-c3c(C)cc(C(F)(F)F)cc3C)c2=O)n1 [2-516, 2-[2,6-dimethyl-4-(trifluoromethyl)phenyl]-5-hydroxy-4-(3-methyl-1 H-pyrazol-1-yl)-6-(trifluoromethyl)pyridazin-3(2H)-one] | ≥ 90% | ≥ 90% |  |  |  |  |  | ≥ 80%
CCc1nn(-c2c(C)cc(C(F)(F)F)cc2C)c(=O)c(-n2cnc([N+](=O)[O-])n2)c1O [6-65, 2-[2,6-dimethyl-4-(trifluoromethyl)phenyl]-6-ethyl-5-hydroxy-4-(3-nitro-1 H-1,2,4-triazol-1-yl)pyridazin-3(2H)-one] | ≥ 90% | ≥ 90% |  |  |  |  |  | 
CCc1ncn(-c2c(O)c(C(C)C)nn(-c3c(C)cc(C(F)(F)F)cc3C)c2=O)n1 [6-134, 2-[2,6-dimethyl-4-(trifluoromethyl)phenyl]-4-(3-ethyl-1 H-1,2,4-triazol-1-yl)-5-hydroxy-6-isopropylpyridazin-3(2H)-one] | ≥ 90% | ≥ 90% |  |  |  |  |  | ≥ 80%
CCc1nn(-c2c(C)cc(C#N)cc2C)c(=O)c(-n2cnc(Cl)n2)c1O [6-136, 4-[5-(3-chloro-1 H-1,2,4-triazol-1-yl)-3-ethyl-4-hydroxy-6-oxopyridazin-1(6H)-yl]-3,5-dimethylbenzonitrile] | ≥ 90% | ≥ 90% |  |  |  |  |  | 
CCc1nn(C)c(=O)c(-n2ccc(C(F)(F)F)n2)c1O [Comparative compound (A)] |  |  |  | 0% | 20% | 0% | 0% | 
CCc1nn(-c2ccc(C(F)(F)F)cc2Cl)c(=O)c(-c2ccc(F)cc2)c1O [Comparative compound (B)] |  |  |  | 0% | 30% | 0% | 0% | 
